Experimental data as given in patent US20230348453A1, “HALOGENATED-HETEROARYL AND OTHER HETEROCYCLIC KINASE INHIBITORS, AND USES THEREOF” (iOmx Therapeutics AG, priority 2020, published 2023).
pEC50, pIC50: −log10 of the molar value.

What was measured:
CSF1R = CSF1R (Homo sapiens (Human), UniProt P07333); type: biochemical; settings: Kinase Profiler
[1] = biological target: MDR1 pump (P-gp), MDCK-MDR1 cells (Homo sapiens (Human), UniProt P08183); assay: MDR1-MDCK effective efflux assay; settings: Table 5.1B
MDR1 (P-gp) = MDR1 (P-gp) (Homo sapiens (Human), UniProt P08183); assay: MDR1-MDCK effective efflux assay; settings: dog; for efflux ratio: Table 5.1B
HCT116 cells = assay: TNF-sensitised cell viability assay (CellTiter-Glo); settings: Homo sapiens, HCT-116, read-out: HCT116 IC50 (at 10 ng/ml rHuTNF)
PANC1 cells = assay: as above; settings: Homo sapiens, PANC-1, read-out: PANC IC50 (at 100 ng/ml rHuNF)
in vivo = settings: male, CD1, mouse, po, 30 mg/kg
[2] = system: NFKB activity in MC38 cells; assay: TNF-induced NFKB activity (NFKB-dependent luciferase reporter); settings: 10 ng/ml rMuTNF
SIK3 = SIK3 (Homo sapiens (Human), UniProt Q9Y2K2); settings: fold of the value of compound C7 (C7 = 1×)
[3] = Murine plasma protein binding
[4] = Mouse hepatocyte stability; type: in vitro ADME; settings: hepatocytes
[5] = MDCK wild type permeability/efflux; settings: dog
[6] = system: HDAC4 phosphorylation in PANC-1 cells; assay: HDAC4 phosphorylation (Meso Scale Discovery assay); settings: 10 ng/mL rHuTNF, 3 h
in vitro [7] = settings: human, microsomes
[8] = system: MC38 murine tumour cell line; assay: TNF-sensitised cell viability assay (CellTiter-Glo); settings: Mus musculus
[9] = female, C57BL/6, mouse, in vivo, 7 days
in vitro [10] = settings: mouse, microsomes
[11] = system: NFKB activity in reporter MC38 cells; assay: NFKB luciferase reporter activity in MC38 cells; type: cell-based, murine; settings: Mus musculus, MC-38, +10 ng/ml rHuTNF for 8 h
Procedure: FIG. 28: depicts: (A) and (B) effect of compound E9 on NFKB activity. […] Luciferase activity was normalised to cells treated with rHuTNF without inhibitor (DMSO only). Y-axis=NFKB activity (%). X-axis=compound concentration (nM); Bar “A” viability without compound and without TNF; bar “B” viability without compound and with 10 ng/ml TNF; and (C) Effect of compound E9 on HDAC4 phosphorylation. […] Whole cell lysates were analysed in a Meso Scale Discovery (MSD) assay with anti-HDAC4 capture and anti-pHDAC4 detection antibodies. HDAC4 phosphorylation was normalized to untreated PANC-1 cells (DMSO only). Y-axis=HDAC4 phosphorylation (%). X-axis=Compound concentration (nM).

[12] = system: MC38 colorectal carcinoma tumours; assay: MC38 syngeneic mouse tumour model (Example 8.1); settings: MC38; for Body weight increase (%) / Non-treatment related death / Tumour growth inhibition (%): BID po
[13] = system: MC38 colorectal carcinoma tumours; assay: MC38 syngeneic mouse model, E9 and anti-PD-1 alone and in combination (Example 10); type: in vivo, C57Bl/6N mice; settings: E9 25 mg/Kg twice daily and/or anti-PD-1 mAb
SIK2 = SIK2 (Homo sapiens (Human), UniProt Q9H0K1); assay: SIK2 kinase inhibition (IC50); settings: read-out: Kinase: IC50 (nM) SIK2
[14] = in vivo, po, 30 mg/kg
[15] = system: SIK3 WT and KO MC38 clones; assay: TNF-mediated killing of SIK3 wildtype vs SIK3 knockout MC38 clones (CTG); type: cell-based, mouse; settings: sub-optimal TNF (<10 ng/ml), 72 h
Procedure: The assay was performed as follows: MC38 SIK3 KO clones were generated using CRISPR. Cells were transfected with RNP complexes (Cas9+gRNA) containing gRNAS targeting SIK3 or non-targeting sequences (control). […] Subsequently, single cell clones were generated by limiting dilution. CRISPR-derived mutations in single clones were detected by next-generation sequencing and analysed using CRISPResso. Knockout and wildtype clones were selected and plated overnight. […] Cells treated with different concentrations of inhibitor but without TNF served as no TNF control. Cell viability was measured by CTG assay.

[16] = system: NFKB activity in PANC-1 cells; assay: TNF-induced NFKB activity (NFKB-dependent luciferase reporter); settings: 10 ng/ml rHuTNF, PANC-1 reporter cells
[17] = Human plasma-protein binding
[18] = Human hepatocyte stability; type: in vitro ADME

CSF1R, sequence (P07333 20-972 limits assumed): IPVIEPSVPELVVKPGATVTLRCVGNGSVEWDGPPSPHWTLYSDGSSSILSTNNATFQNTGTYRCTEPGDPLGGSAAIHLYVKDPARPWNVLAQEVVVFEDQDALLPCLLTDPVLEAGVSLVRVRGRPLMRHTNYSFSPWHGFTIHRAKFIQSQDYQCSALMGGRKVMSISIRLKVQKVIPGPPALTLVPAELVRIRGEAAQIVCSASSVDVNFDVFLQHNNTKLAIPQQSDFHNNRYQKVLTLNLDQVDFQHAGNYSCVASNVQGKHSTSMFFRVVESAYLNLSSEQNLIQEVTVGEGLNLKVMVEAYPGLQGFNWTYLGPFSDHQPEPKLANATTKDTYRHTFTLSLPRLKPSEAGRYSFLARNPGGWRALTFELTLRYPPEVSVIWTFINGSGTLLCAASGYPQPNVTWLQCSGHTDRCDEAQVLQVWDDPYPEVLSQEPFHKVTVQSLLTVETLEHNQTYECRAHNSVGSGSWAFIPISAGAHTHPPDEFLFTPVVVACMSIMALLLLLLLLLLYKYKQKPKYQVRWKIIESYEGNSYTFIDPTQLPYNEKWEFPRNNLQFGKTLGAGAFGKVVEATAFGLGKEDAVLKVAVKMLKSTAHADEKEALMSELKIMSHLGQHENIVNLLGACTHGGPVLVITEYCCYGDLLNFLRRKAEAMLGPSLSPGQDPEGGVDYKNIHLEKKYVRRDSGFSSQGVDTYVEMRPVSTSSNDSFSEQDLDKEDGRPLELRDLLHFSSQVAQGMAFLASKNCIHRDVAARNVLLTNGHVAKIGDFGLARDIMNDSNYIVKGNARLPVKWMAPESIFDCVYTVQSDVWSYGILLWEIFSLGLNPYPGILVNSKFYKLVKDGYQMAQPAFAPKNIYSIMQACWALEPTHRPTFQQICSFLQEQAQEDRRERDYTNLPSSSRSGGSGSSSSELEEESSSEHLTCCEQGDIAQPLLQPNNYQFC

Compound: Cc1nc(Nc2ncc(C(=O)Nc3c(CF)csc3Cl)s2)cc(N2CCN(C)CC2)n1 [Compound E9, N-(2-chloro-4-(fluoromethyl)thiophen-3-yl)-2-((2-methyl-6-(4-methylpiperazin-1-yl)pyrimidin-4-yl)amino)thiazole-5-carboxamide]
- CSF1R residual activity (CSF1R): less than 1%
- MDCK-MDR1 cells, Mean Efflux Ratio (MDR1) [1]: 26
- Papp (MDR1 (P-gp); MDCK-MDR1): 50 nm/s
- efflux ratio (MDR1 (P-gp); MDCK-MDR1, MDCK-MDR1 cells, Mean Efflux Ratio (MDR1)): 20 to 30
- efflux ratio (MDR1 (P-gp); MDCK-MDR1, P-gP driven efflux ratio (MDR1/wt)): 27
- pIC50 (HCT116 cells): > 7.00
- pIC50 (PANC1 cells): > 7.00
- AUC(0-inf) (in vivo): 9.63 µM·h
- AUC(0-t) (in vivo): 9.58 µM·h
- Cmax (in vivo): 2.69 µg/mL
- MRT last (in vivo): 203 min
- Tmax (in vivo): 15 min
- half-life (in vivo): 166 min
- Inhibition of NFKB activity (MC38) [2]: ++
- SIK3 IC50 (nM), relative to C7 (SIK3): 0.3×
- Murine plasma protein binding, Percentage unbound (%) ([3]; Table 5.1A): 1%
- recovery at 4 h ([3]; mouse, plasma): 88%
- half-life [4]: 65 min
- microsomal CLint ([4]; read-out: Mouse hepatocyte stability, Intrinsic clearance): 21 µL/min/mg
- Papp [5]: 100 nm/s
- efflux ratio [5]: 1
- Inhibition of HDAC4 phosphorylation [6]: ++
- half-life (in vitro [7]): 11 min
- microsomal CLint (in vitro [7]): 131 µL/min/mg
- pIC50 ([8]; MC-38, read-out: MC38 IC50 (at 100 ng/mL rMuTNF)): > 7.00
- pEC50 ([8]; MC-38, read-out: mean EC50 of sensitising MC38 tumour cells to TNF-mediated killing): > 7.00
- DLT@BID dosing [9]: n.d. @50 mg/kg
- DLT@QD dosing [9]: n.d. @50 mg/kg
- HRD in vivo @BID [9]: 50 mg/kg
- HRD in vivo @QD [9]: 50 mg/kg
- half-life (in vitro [10]): 9 min
- microsomal CLint (in vitro [10]): 158 µL/min/mg
- pEC50 [11]: 6.41
- Body weight increase (%) ([12]; 25 mg/Kg): 16.8%
- Non-treatment related death ([12]; 25 mg/Kg): 2/16
- Tumour growth inhibition (%) ([12]; 25 mg/Kg): 74%
- average TGI ([12]; 25 mg/kg BID): 72%
- Body weight increase (%) ([12]; 50 mg/Kg): 18.7%
- Non-treatment related death ([12]; 50 mg/Kg): 3/16
- Tumour growth inhibition (%) ([12]; 50 mg/Kg): 69%
- TGI [13]: 73%
- IC50 (SIK2): < 10 nM
- % AUCextrap, Free ([14]; male, CD1, mouse): 0.49%
- % AUCextrap, Total ([14]; male, CD1, mouse): 0.49%
- AUCinf (nM*h), Free ([14]; male, CD1, mouse): 239.92 nM·h
- AUClast (nM*h), Free ([14]; male, CD1, mouse): 238.75 nM·h
- Rsq, Free ([14]; mouse): 0.84
- Rsq, Total ([14]; mouse): 0.84
- TNF-mediated killing in SIK3 WT vs KO MC38 clones [15]: induced TNF-mediated killing only in SIK3 WT clones
- Inhibition of NFKB activity (PANC-1) [16]: ++
- Human plasma-protein binding, Percentage unbound (%) ([17]; Table 5.1A): 1%
- recovery at 4 h ([17]; human, plasma): 92%
- Human hepatocyte stability, Half-life [18]: 24 min
- half-life ([18]; human, hepatocytes, read-out: Human hepatocyte stability, Half-life): 21 to 30 min
- microsomal CLint ([18]; human, hepatocytes, read-out: Human hepatocyte stability, Intrinsic clearance): 58 µL/min/mg
